Experiments:
[1] = target: human lysosomal α-mannosidase (α-hLM) (Homo sapiens (Human), UniProt O00754); assay: α-Mannosidase (α-hLM) activity assay, 4-MU-α-D-mannopyranoside substrate; assay type: biochemical; details: pH 4.6, 37° C., 1 h
Experimental: Compounds were diluted to give the final concentration of 100 μM and mixed with 4-MU-α-D-mannopyranoside as substrate and human Golgi α-mannosidase II in phosphate buffer (0.1 M Sodium phosphate dibasic, pH 7.0) or human lysosomal α-mannosidase in citric phosphate buffer (0.1 M Sodium phosphate monobasic monohydrate, 0.5 mM citric acid monohydrate, pH 4.6). The assay was carried out at 37° C. for a certain time (1 h for α-hLM, 2 h for α-hGMII). Stop solution (0.5 M K2CO3(aq), pH 10.8) was then added to the reactions and the fluorescence was determined at 355 nm excitation and 460 nm emission (SpectraMax M5, Molecular Devices). Inhibition was performed as relative enzyme activity to control. The active compounds were selected for libraries preparation and further tested at lower concentration to determine their IC50 values. The assays performed in 384-wells of the microtiter plates.

[2] = tested on: HepG2 cells; assay: N-glycan profiling by mass spectrometric analysis; assay type: cell-based, human; details: HepG2, 0.1 to 10 μM, 72 h
Experimental: (§1) To this purpose, HepG2 and Huh7 cells were treated with ACK900 in dose-dependent manner (0.1 to 10 μM) for 72 h and N-glycan profiling was determined using mass spectrometric analysis. (FIGS. 1B and 1C)), This method was based on matching the experimental masses with the predicted masses of the glycans from the CFG carbohydrate database. The individual glycoforms were quantified and calculated for their proportions in all the glycoforms. Most N-glycans of untreated HepG2 and Huh7 were dominated by complex-type glycans containing sialic acids and fucoses. High-mannose or hybrid-type glycans were found in a relatively low percentage. […] These glycoform data from MS analysis were consistent with the surface binding of lectin using fluorescence microscopy.

[3] = tested on: Huh7 cells; assay: N-glycan profiling by mass spectrometric analysis; assay type: cell-based, human; details: Huh7, 0.1 to 10 μM, 72 h
Experimental: as §1

[4] = tested on: HepG2 cells; assay: Surface binding of lectin by fluorescence microscopy; assay type: cell-based, human; details: HepG2, 10 μM, 48 h
[5] = tested on: Huh7 cells; assay: as above; assay type: cell-based, human; details: Huh7, 10 μM, 48 h
[6] = tested on: HepG2 cells; assay: Transwell migration assay; assay type: cell-based, human; details: 18 hours
Experimental: (§2) Chemotaxis experiments with human HepG2Huh7, or PANC-1 cells were assayed by using transwells (Millipore). The cells to be analyzed (5×10^4 cells/well) were seeded in the upper chambers of the 24-well plate in 400 μL serum-free medium. FBS (10%) was used as the chemoattractant with or without different concentrations of the test compound (e.g., ACK900, ACK901, ACK902) in the lower chamber, and the plate was incubated under standard conditions. After incubation for 18 hours, the media in the upper chambers were aspirated and washed with phosphate-buffered saline (PBS) twice. Both non-migrated and migrated cells were fixed with 4% paraformaldehyde (PFA) for 30 minutes at room temperature, stained with 2% crystal violet solution. The non-invading cells were removed from the upper surface of the insert membrane with a cotton swab. The images were taken using an imaging reader (Cytation 5, BioTek, VT, U.S.A.) and analyzed using NIH ImageJ software. Percent in the results represent percent of initial number of cells in the migrating and nonmigrating Cell fractions.

[7] = tested on: Huh7 cells; assay: Transwell migration assay; assay type: cell-based, human; details: 18 hours
Experimental: as §2

[8] = tested on: PANC-1 cells; assay: Transwell migration assay; assay type: cell-based, human; details: PANC-1, transwell, 18 hours
Experimental: as §2

[9] = Serum biochemistry assay in Huh7 xenograft mice; assay type: in vivo, NOD-SCID mice; details: serum, 30 mg/kg i.p., twice a week
Experimental: All blood specimens were collected in tubes and were left at 25° C. for 30 min to clot and centrifuged for 10 min at 1200 g. The concentrations of the following biochemical serum analytes collected were measured with FUJI DRI-CHEM 500i analyzer (FUJIFILM Corp., Tokyo, Japan) using the manufacturer's reagents and according to the manufacturer's instructions: Alanine Aminotransferase ALT), Aspartate Aminotransferase (AST), Blood Urea Nitrogen (BUN), Creatinine (CRE) and Total Bilirubin (TBIL).
HCC xenografts were established in 5-6 weeks old NOD-SCID mice by subcutaneous inoculation of about 5×10^6 Huh7 cells suspended in 50 μL PBS+50 μL, Matrigel (Corning, 394230) in the left and right flanks of each mouse. After one week of inoculation, tumors were palpable and the mice were assigned randomly to 1 of 4 treatment groups. Group 1 (vehicle control group, n=6) mice only received a vehicle solution containing Kolliphor EL (Sigma Aldrich, C5135), 99.9% ethanol and water in a ratio of 1:1:6. Groups 2, 3, 4 and 5 mice were intraperitoneally injected with the test compound (e.g., compound ACK900, ACK901, or ACK902) (30 mg/kg, ip, n=7/group) or sorafenib (30 mg/kg, ip, n=6/group), twice per week for 25 days. The tumor volume was calculated by the formula of a ratioinal ellipsoid: [0.5236×short axis) m1^2×(long axis)m^2], and the tumor volume was measured twice per week. All mice were sacrificed at 27 days after the treatment started. Tumor tissues were isolated, photographed and weighted.
In vivo tumor growth inhibition studies in human Huh7 xenograft rodents were performed in accordance with procedures as described in the “Material and Method” section. Xenograft tumors were generated by implanting Huh7 cells (5×10^6) subcutaneously into the left and right flanks of each NOD-SCID mouse. Starting on the 7th day after the inoculation of Huh7 cells, the mice were injected with ACK900, ACK901, ACK902 or sorafenib intraperitoneally (i.p.) at a dose of 30 mg/kg and twice a week for 34 days.

Chain of human lysosomal α-mannosidase (α-hLM) (O00754 50-1011): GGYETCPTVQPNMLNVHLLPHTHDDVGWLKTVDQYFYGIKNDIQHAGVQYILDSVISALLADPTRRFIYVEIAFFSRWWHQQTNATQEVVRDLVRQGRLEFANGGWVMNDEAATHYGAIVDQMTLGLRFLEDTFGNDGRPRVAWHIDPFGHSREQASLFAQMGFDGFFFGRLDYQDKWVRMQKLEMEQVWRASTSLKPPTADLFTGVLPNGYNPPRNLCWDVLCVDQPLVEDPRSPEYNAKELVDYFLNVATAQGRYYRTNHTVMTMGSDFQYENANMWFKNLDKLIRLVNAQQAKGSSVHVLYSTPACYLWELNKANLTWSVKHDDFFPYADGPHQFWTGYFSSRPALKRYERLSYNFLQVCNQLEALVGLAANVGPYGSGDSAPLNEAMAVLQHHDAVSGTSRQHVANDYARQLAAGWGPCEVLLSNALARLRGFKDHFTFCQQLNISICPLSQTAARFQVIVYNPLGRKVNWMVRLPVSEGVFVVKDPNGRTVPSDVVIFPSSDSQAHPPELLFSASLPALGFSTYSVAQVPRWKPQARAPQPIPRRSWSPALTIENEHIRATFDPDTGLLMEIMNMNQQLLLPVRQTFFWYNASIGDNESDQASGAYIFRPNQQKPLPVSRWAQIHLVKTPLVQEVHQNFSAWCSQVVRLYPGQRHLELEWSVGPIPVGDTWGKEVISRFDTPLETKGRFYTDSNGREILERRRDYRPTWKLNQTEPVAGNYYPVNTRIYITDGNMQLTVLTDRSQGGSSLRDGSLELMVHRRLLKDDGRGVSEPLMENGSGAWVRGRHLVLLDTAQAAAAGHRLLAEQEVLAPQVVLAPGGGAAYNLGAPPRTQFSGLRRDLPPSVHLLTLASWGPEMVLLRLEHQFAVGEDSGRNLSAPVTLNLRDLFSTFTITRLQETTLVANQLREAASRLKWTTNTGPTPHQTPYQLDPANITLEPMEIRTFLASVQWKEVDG

IC50 [1]: 14 µM | BUN [9]: 22.37 ± 4.41 mg/dL | CRE [9]: 0.33 ± 0.05 mg/dL | TBIL [9]: 0.55 ± 0.18 mg/dL
SMILES: CCC[C@H]1CC[C@H](c2ccc(NC(=S)NC[C@@H]3[C@@H](O)[C@@H](O)[C@H]4[C@H](O)CCCN43)cc2)CC1 [ACK900]
N-glycan pattern [2]: significant shift of N-glycopatterns from complex chains to the hybrid-type glycan | N-glycan pattern [3]: significant shift of N-glycopatterns from complex chains to the hybrid-type glycan | surface binding of Concanavalin A (ConA) [4]: markedly increased | surface binding of galectin-1 (Gal1) [4]: substantially decreased | surface binding of Concanavalin A (ConA) [5]: markedly increased | surface binding of galectin-1 (Gal1) [5]: substantially decreased | migratory capability [6]: remarkably decreased | migratory capability [7]: remarkably decreased | migratory capability [8]: remarkably decreased | ALT [9]: 101.57 ± 70.63 U/L | AST [9]: 223.42 ± 157.00 U/L

Reference: US20240190866A1, “POLYHYDROXYLATED INDOLIZIDINE AND PYRROLIZIDINE DERIVATIVES AND USES THEREOF” (Academia Sinica, priority 2021, published 2024)
